The record followed here is article PMC11995724, “Antibiotic target discovery by integrated phenotypic and activity-based profiling of electrophilic fragments” (Cell chemical biology, 2025).

One may read the viability as a read-out of living cells in per cent, often relative to untreated cells.

Molecules are shown by their SMILES.

The data set is described as follows: in vitro. To be noted: human, hek293t cells.
On to `COc1cc(C=C(C#N)C(=O)Nc2ccc(C)cc2)cc(Cl)c1O` [8-P05, 3-(3-chloro-4-hydroxy-5-methoxyphenyl)-2-cyano-N-(4-methylphenyl)prop-2-enamide], for which the viability at 48 h, 25 µM was 95.6%.

As to `CC(C)NC(=O)C(C#N)=Cc1cccc2ccccc12` [8-P06, 2-cyano-3-(naphthalen-1-yl)-N-(propan-2-yl)prop-2-enamide], the viability at 48 h, 25 µM was 103%.

Regarding `COc1ccc(C=C(C#N)C(=O)Nc2ccccc2C)cc1` [8-P07, 2-cyano-3-(4-methoxyphenyl)-N-(2-methylphenyl)prop-2-enamide], the viability at 48 h, 25 µM worked out at 114%.

Consider `COc1cc(C=C(C#N)C(N)=O)ccc1OC(F)F` [8-P08, 2-cyano-3-[4-(difluoromethoxy)-3-methoxyphenyl]prop-2-enamide], for which the viability at 48 h, 25 µM turned out to be 82.2%.

For `N#CC(=Cc1c(Cl)cccc1Cl)C(=O)Nc1nccs1` [8-P09, 2-cyano-3-(2,6-dichlorophenyl)-N-(1,3-thiazol-2-yl)prop-2-enamide], the viability at 48 h, 25 µM was 109%.

As for `N#CC(=Cc1ccccc1)C(=O)NCc1ccc(F)cc1` [8-P10, 2-cyano-N-[(4-fluorophenyl)methyl]-3-phenylprop-2-enamide], the viability at 48 h, 25 µM stood at 89%.

For `CCc1cccc(CC)c1NC(=O)C(C#N)=Cc1ccc(C)o1` [8-P11, 2-cyano-N-(2,6-diethylphenyl)-3-(5-methylfuran-2-yl)prop-2-enamide], the viability at 48 h, 25 µM came out at 108%.

Regarding `COc1ccc2ccccc2c1C=C(C#N)C(=O)N1CCCC1` [8-P12, 3-(2-methoxynaphthalen-1-yl)-2-(pyrrolidine-1-carbonyl)prop-2-enenitrile], the viability at 48 h, 25 µM amounted to 75.4%.

For the compound `Cc1ccc(C=C(C#N)C(=O)Nc2nccs2)s1` [8-P13, 2-cyano-3-(5-methylthiophen-2-yl)-N-(1,3-thiazol-2-yl)prop-2-enamide], the viability at 48 h, 25 µM was found to be 109%.

Turning to `N#CC(=Cc1cccc(O)c1)C(=O)NCc1ccc(Cl)cc1` [8-P14, N-[(4-chlorophenyl)methyl]-2-cyano-3-(3-hydroxyphenyl)prop-2-enamide], the viability at 48 h, 25 µM was 64.4%.

With `COc1ccc(C=C(C#N)C(=O)Nc2ccccc2C)cc1O` [8-P15, 2-cyano-3-(3-hydroxy-4-methoxyphenyl)-N-(2-methylphenyl)prop-2-enamide], the viability at 48 h, 25 µM was 120%.

In the case of `CC(NC(=O)C(C#N)=Cc1ccccc1F)c1ccccc1` (centres unmarked) [8-P16, 2-cyano-3-(2-fluorophenyl)-N-(1-phenylethyl)prop-2-enamide], the viability at 48 h, 25 µM was found to be 61.8%.

Turning to `CCCCNC(=O)C(C#N)=Cc1ccncc1` [8-P17, N-butyl-2-cyano-3-(pyridin-4-yl)prop-2-enamide], the viability at 48 h, 25 µM stood at 115%.

Turning to `COc1ccc2ccccc2c1C=C(C#N)C(=O)NC1CCCCC1` [8-P18, 2-cyano-N-cyclohexyl-3-(2-methoxynaphthalen-1-yl)prop-2-enamide], the viability at 48 h, 25 µM stood at 66.4%.

For `Cc1ccc(C=C(C#N)C(=O)NCc2ccco2)o1` [8-P19, 2-cyano-N-[(furan-2-yl)methyl]-3-(5-methylfuran-2-yl)prop-2-enamide], the viability at 48 h, 25 µM was determined as 95.3%.

Turning to `N#CC(=CC=Cc1ccccc1[N+](=O)[O-])C(=O)Nc1ccccc1` [8-P20, 2-cyano-5-(2-nitrophenyl)-N-phenylpenta-2,4-dienamide], the viability at 48 h, 25 µM was determined as 48%.

In the case of `Cc1cc(C)c(C=C(C#N)C(=O)Nc2nccs2)cc1C` [8-P21, 2-cyano-N-(1,3-thiazol-2-yl)-3-(2,4,5-trimethylphenyl)prop-2-enamide], the viability at 48 h, 25 µM is 113%.

With `N#CC(=Cc1cccc(Cl)c1Cl)C(=O)Nc1ccc(F)cc1` [8-P22, 2-cyano-3-(2,3-dichlorophenyl)-N-(4-fluorophenyl)prop-2-enamide], the viability at 48 h, 25 µM was found to be 92.8%.

Consider `N#CC(=Cc1cccc(F)c1F)C(N)=O` [9-A03, 2-cyano-3-(2,3-difluorophenyl)prop-2-enamide], for which the viability at 48 h, 25 µM was determined as 115%.

With `N#CC(=Cc1ccc(OC(F)F)cc1)C(=O)NC1CCCCC1` [9-A04, 2-cyano-N-cyclohexyl-3-[4-(difluoromethoxy)phenyl]prop-2-enamide], the viability at 48 h, 25 µM was 66.2%.

For the compound `CC(O)=C(C#N)C(=O)Nc1ccc(C(F)(F)F)cc1` [9-A05, 2-cyano-3-hydroxy-N-[4-(trifluoromethyl)phenyl]but-2-enamide], the viability at 48 h, 25 µM was 90.6%.

Consider `CCOc1ccccc1NC(=O)C(C#N)=Cc1c(C)[nH]c2ccccc12` [9-A06, 2-cyano-N-(2-ethoxyphenyl)-3-(2-methyl-1H-indol-3-yl)prop-2-enamide], for which the viability at 48 h, 25 µM was determined as 100%.

`Cc1cc(C=C(C#N)C(=O)Nc2ccccc2)c(C)n1CC(C)C` [9-A07, 2-cyano-3-[2,5-dimethyl-1-(2-methylpropyl)-1H-pyrrol-3-yl]-N-phenylprop-2-enamide]: the viability at 48 h, 25 µM was 115%.

With `N#CC(=Cc1ccc(-c2ccccc2F)o1)C(=O)Nc1nccs1` [9-A08, 2-cyano-3-[5-(2-fluorophenyl)furan-2-yl]-N-(1,3-thiazol-2-yl)prop-2-enamide], the viability at 48 h, 25 µM turned out to be 110%.

On to `CC(C)NC(=O)C(C#N)=Cc1ccccc1Cl` [9-A09, 3-(2-chlorophenyl)-2-cyano-N-(propan-2-yl)prop-2-enamide], for which the viability at 48 h, 25 µM was determined as 95.9%.

With `COc1ccccc1NC(=O)C(C#N)=Cc1cc(C)c(C)cc1C` [9-A10, 2-cyano-N-(2-methoxyphenyl)-3-(2,4,5-trimethylphenyl)prop-2-enamide], the viability at 48 h, 25 µM is 115%.

In the case of `CC(C)NC(=O)C(C#N)=Cc1c(Cl)nc2ccccn12` [9-A11, 3-{2-chloroimidazo[1,2-a]pyridin-3-yl}-2-cyano-N-(propan-2-yl)prop-2-enamide], the viability at 48 h, 25 µM stood at 112%.

`CC(=O)N(c1ccccc1)c1nc(C=C(C#N)C(=O)NC2CC2)cs1` [9-A12, 2-cyano-N-cyclopropyl-3-[2-(N-phenylacetamido)-1,3-thiazol-4-yl]prop-2-enamide]: the viability at 48 h, 25 µM came out at 123%.

For the compound `CC(C)NC(=O)C(C#N)=Cc1cccc(Cl)c1` [9-A13, 3-(3-chlorophenyl)-2-cyano-N-(propan-2-yl)prop-2-enamide], the viability at 48 h, 25 µM turned out to be 99.7%.

As to `CN(C)c1ccc(C=C(C#N)C(=O)N2CCC2)cc1` [9-A14, 2-(azetidine-1-carbonyl)-3-[4-(dimethylamino)phenyl]prop-2-enenitrile], the viability at 48 h, 25 µM is 106%.

Regarding `N#CC(=Cc1ccc2c(c1)OCO2)C(=O)NCc1ccco1` [9-A15, 3-(1,3-dioxaindan-5-yl)-2-cyano-N-[(furan-2-yl)methyl]prop-2-enamide], the viability at 48 h, 25 µM stood at 119%.

`N#CC(=Cc1cnn(CCCl)c1)C(=O)NC1CCCCC1` [9-A16, 3-[1-(2-chloroethyl)-1H-pyrazol-4-yl]-2-cyano-N-cyclohexylprop-2-enamide]: the viability at 48 h, 25 µM was 109%.

Consider `COc1cccc2cc(C=C(C#N)C(=O)Nc3ccc(C)cc3)oc12` [9-A17, 2-cyano-3-(7-methoxy-1-benzofuran-2-yl)-N-(4-methylphenyl)prop-2-enamide], for which the viability at 48 h, 25 µM was found to be 89%.

In the case of `COc1ccc(C=C(C#N)C(=O)Nc2ccccc2C(=O)O)cc1O` [9-A18, 2-[2-cyano-3-(3-hydroxy-4-methoxyphenyl)prop-2-enamido]benzoic acid], the viability at 48 h, 25 µM was determined as 104%.

As to `COc1ccc(C=C(C#N)C(=O)Nc2ccc(C)cc2)cc1` [9-A19, 2-cyano-3-(4-methoxyphenyl)-N-(4-methylphenyl)prop-2-enamide], the viability at 48 h, 25 µM came to 103%.

Turning to `N#CC(=Cc1cccc(O)c1)C(=O)Nc1ccccc1C(F)(F)F` [9-A20, 2-cyano-3-(3-hydroxyphenyl)-N-[2-(trifluoromethyl)phenyl]prop-2-enamide], the viability at 48 h, 25 µM was determined as 109%.

As to `N#CC(C(=O)N1CCCCC1)=C1N=C(N)c2ccccc21` [9-A21, 2-(3-amino-1H-isoindol-1-ylidene)-3-oxo-3-(piperidin-1-yl)propanenitrile], the viability at 48 h, 25 µM turned out to be 102%.

Regarding `N#CC(=Cc1ccc(C#N)cc1)C(=O)Nc1ccc(F)c(Cl)c1` [9-A22, N-(3-chloro-4-fluorophenyl)-2-cyano-3-(4-cyanophenyl)prop-2-enamide], the viability at 48 h, 25 µM is 102%.

As for `N#CC(=Cc1ccc(N2CCOCC2)cc1)C(=O)Nc1ccccc1F` [9-B03, 2-cyano-N-(2-fluorophenyl)-3-[4-(morpholin-4-yl)phenyl]prop-2-enamide], the viability at 48 h, 25 µM came out at 89.3%.

`CCN(CC)C(=O)/C(C#N)=C/c1cc(O)c(O)c([N+](=O)[O-])c1` [9-B04, (2E)-2-cyano-3-(3,4-dihydroxy-5-nitrophenyl)-N,N-diethylprop-2-enamide]: the viability at 48 h, 25 µM was 105%.

Turning to `Cc1c(Cl)cccc1NC(=O)C(C#N)=Cc1cccs1` [9-B05, N-(3-chloro-2-methylphenyl)-2-cyano-3-(thiophen-2-yl)prop-2-enamide], the viability at 48 h, 25 µM was 108%.

Take `N#CC(=Cc1cccc(-c2ccncc2)c1)C(=O)NCc1ccco1` [9-B06, 2-cyano-N-[(furan-2-yl)methyl]-3-[3-(pyridin-4-yl)phenyl]prop-2-enamide]: the viability at 48 h, 25 µM worked out at 68.2%.

For `N#CC(=Cc1c[nH]c2ccccc12)C(=O)Nc1ccc2c(c1)OCCO2` [9-B07, 2-cyano-N-(2,3-dihydro-1,4-benzodioxin-6-yl)-3-(1H-indol-3-yl)prop-2-enamide], the viability at 48 h, 25 µM came to 101%.

As for `N#CC(=Cc1ccc(-c2ccccc2)cc1)C(=O)N1CCCC1` [9-B08, 3-{[1,1'-biphenyl]-4-yl}-2-(pyrrolidine-1-carbonyl)prop-2-enenitrile], the viability at 48 h, 25 µM is 71.2%.

On to `C=CCNC(=O)C(C#N)=Cc1cccc(O)c1` [9-B09, 2-cyano-3-(3-hydroxyphenyl)-N-(prop-2-en-1-yl)prop-2-enamide], for which the viability at 48 h, 25 µM worked out at 113%.

Turning to `N#CC(=Cc1c[nH]c2ccccc12)C(=O)Nc1ccccn1` [9-B10, 2-cyano-3-(1H-indol-3-yl)-N-(pyridin-2-yl)prop-2-enamide], the viability at 48 h, 25 µM amounted to 111%.

Take `N#CC(=Cc1ccco1)C(=O)NCCc1ccc(F)cc1F` [9-B11, 2-cyano-N-[2-(2,4-difluorophenyl)ethyl]-3-(furan-2-yl)prop-2-enamide]: the viability at 48 h, 25 µM was found to be 122%.
